Laboratory results as given in patent US20250332173A1, “COMPOUNDS AND METHODS FOR MODULATING NUCLEIC ACID SPLICING” (REMIX THERAPEUTICS INC., priority 2021, published 2025).
Read-outs that look alike come from different tables or passages of the source.

What was measured:
Format in all cases: cell-based, human
Target C = assay: HiBiT protein abundance assay, Target C (Promega Nano-Glo HiBiT Lytic Detection System, knock-in K562 cell line); conditions: Homo sapiens, K562, 24 h, HiBiT K562 cell line, 24 hours, top dose 10 μM; read-out: Effect on protein abundance, Target C (IC50 category)
Method in brief: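 Protein abundance was read by Nano-Glo HiBiT lytic luminescence after 24 h compound exposure (10-point, threefold series from 10 μM final) of HiBiT knock-in K562 cells. Parental K562 served as baseline; the 50%-abundance concentration was interpolated from a four-parameter logistic fit.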

HTT mRNA = assay: RT-qPCR splicing assay, HTT canonical junction (CJ) and alternative junction (AJ) mRNA; conditions: Homo sapiens; for AC50: increase in HTT alternative junction (AJ) mRNA, read-out: HTT AJ AC50
Method in brief: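 Splicing switches were read by TaqMan RT-qPCR on lysates, quantifying exon-exon junctions of the canonical and alternative-exon isoforms. Lysates came from K562 (GAPDH/GUSB reference) or A673 (PPIA reference) cells exposed 24 h to compound in 11 threefold steps from 10 uM, with DMSO ≤0.25%.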

SMN2 mRNA = assay: RT-qPCR splicing assay, SMN2 canonical junction (CJ) mRNA; conditions: Homo sapiens; Table 5 panel; canonical junction qPCR; compound concentration having 50% response in CJ decrease; read-out: SMN2 IC50 (decrease in CJ mRNA levels)
Method in brief: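 Exposure: 24 h, 37 °C, 11-point 3-fold dilutions from 10 uM final, DMSO at or below 0.25%, in A673 or K562 cells. Detection: cell-lysate RT-qPCR of canonical junction mRNA relative to GAPDH, GUSB or PPIA.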

[1] = decrease in HTT canonical junction (CJ) mRNA, RT-qPCR, read-out: HTT CJ IC50
[2] = Table 5 panel, canonical junction qPCR, compound concentration having 50% response in CJ decrease, read-out: HTT IC50 (decrease in CJ mRNA levels)

Row | SMILES | IC50 (Target C) | IC50 (HTT mRNA; [1]) | AC50 (HTT mRNA; RT-qPCR) | IC50 (HTT mRNA; [2]) | IC50 (SMN2 mRNA)
1 | Cc1cn2nc(-c3cc(O)c4c(=O)n(C5CCNC5)cnc4c3)cc(C)c2n1 (stereo not shown) [Compound 362, 7-{2,8-dimethylimidazo[1,2-b]pyridazin-6-yl}-5-hydroxy-3-(pyrrolidin-3-yl)quinazolin-4-one] | > 10000 nM | > 10000 nM | > 10000 nM | > 10000 nM | 100 to 1000 nM
2 | CNc1cc(-c2cc(C)c3nc(C)cn3n2)cc2ncn(C3CCNCC3)c(=O)c12 [Compound 359, 7-{2,8-dimethylimidazo[1,2-b]pyridazin-6-yl}-5-(methylamino)-3-(piperidin-4-yl)quinazolin-4-one] | 1000 to 10000 nM | 1000 to 10000 nM | 1000 to 10000 nM | 1000 to 10000 nM | < 100 nM
3 | CN1CC=C(c2ccc3c(=O)n(-c4ccc5nn(C)cc5c4)cnc3c2)CC1 [Compound 159] | > 10000 nM | > 10000 nM | > 10000 nM | > 10000 nM | > 10000 nM
4 | CNc1cc(-c2cc(F)c3nc(C)cn3c2)cc2ncn(C3CCNCC3)c(=O)c12 [Compound 358, 7-{8-fluoro-2-methylimidazo[1,2-a]pyridine-6-yl}-5-(methylamino)-3-(piperidin-4-yl)quinazolin-4-one] | 1000 to 10000 nM | > 10000 nM | 1000 to 10000 nM | 1000 to 10000 nM | 100 to 1000 nM
5 | COc1cc(-c2cc(F)c3c(=O)n(C4CCNCC4)cnc3c2)cnn1 [Compound 320] | > 10000 nM | > 10000 nM | > 10000 nM | > 10000 nM | 1000 to 10000 nM
6 | Cc1cn2nc(-c3ccc4c(c3)CCN(C3CCN(C)C3)C4=O)cc(C)c2n1 (stereo not shown) [Compound 282] | > 10000 nM | > 10000 nM | > 10000 nM | > 10000 nM | 1000 to 10000 nM
7 | Cc1cn2nc(-c3ccc4c(=O)n(C5CCN(C)CC5)ccc4c3)cc(C)c2n1 [Compound 310] | 100 to 1000 nM | 100 to 1000 nM | 100 to 1000 nM | 100 to 1000 nM | < 100 nM
8 | Cc1cn2nc(-c3cc(C)c4c(=O)n(C5CCNCC5)cnc4c3)cc(C)c2n1 [Compound 355] | < 100 nM | < 100 nM | 100 to 1000 nM | 100 to 1000 nM | < 100 nM
9 | Cc1cn2nc(-c3ccc4c(=O)n([C@@H]5CCN[C@H](C)C5)ncc4c3)cc(C)c2n1 [Compound 272] | 100 to 1000 nM | 100 to 1000 nM | < 100 nM | < 100 nM | < 100 nM
10 | Cc1cn2nc(-c3ccc4c(c3)CCN(C3CCNC3)C4=O)cc(C)c2n1 (stereo not shown) [Compound 269] | 1000 to 10000 nM | > 10000 nM | > 10000 nM | > 10000 nM | 1000 to 10000 nM
11 | Cc1cn2nc(-c3cc(F)c4c(=O)n([C@H]5CCNC6(CC6)C5)cnc4c3)cc(C)c2n1 (single isomer, unassigned) [Compound 357] | < 100 nM | < 100 nM | < 100 nM | < 100 nM | < 100 nM
12 | Cc1cn2nc(-c3cc(F)c4c(=O)n(C5CCNCC5)cnc4c3)cc2c(C)n1 [Compound 318] | 100 to 1000 nM | < 100 nM | < 100 nM | < 100 nM | < 100 nM
13 | Cc1cc(-c2cnc3c(=O)n(C4CCNCC4)cnc3c2)cc2cn(C)nc12 [Compound 311] | 1000 to 10000 nM | 1000 to 10000 nM | 1000 to 10000 nM | 1000 to 10000 nM | 100 to 1000 nM
14 | Cc1cn2nc(-c3ccc4c(=O)n(C5CCNCC5)cnc4c3)cc2c(C)n1 [Compound 298] | 1000 to 10000 nM | 100 to 1000 nM | 100 to 1000 nM | 100 to 1000 nM | < 100 nM
15 | Cc1cn2nc(-c3ccc4c(=O)n(C5CCN(C)CC5)cnc4c3)nc2c(C)n1 [Compound 288, 7-{6,8-dimethyl-[1,2,4]triazolo[1,5-a]pyrazin-2-yl}1-3-(1-methylpiperidin-4-yl)quinazolin-4-one] | 1000 to 10000 nM | 1000 to 10000 nM | 1000 to 10000 nM | 1000 to 10000 nM | 1000 to 10000 nM
16 | Cc1cc(-c2ccc3c(=O)n(C4CC(C)(C)NC(C)(C)C4)cnc3c2)cc2cn(C)nc12 [Compound 157] | 1000 to 10000 nM | > 10000 nM | > 10000 nM | > 10000 nM | 1000 to 10000 nM
17 | CNc1cc(-c2cc(C#N)c3nc(C)cn3c2)cc2ncn(C3CCNCC3)c(=O)c12 [Compound 363, 2-methyl-6-[5-(methylamino)-4-oxo-3-(piperidin-4-yl)quinazolin-7-yl]imidazo[1,2-a]pyridine-8-carbonitrile] | 1000 to 10000 nM | > 10000 nM | > 10000 nM | > 10000 nM | 1000 to 10000 nM
